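All cell lines were grown in 96-well plates and treated with compound for 48 hours. GI50 = concentration required for 50% inhibition of growth.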 The source made the active and inactive calls. Rule as the data show it: active = GI50 up to about 1.1 µM and inactive = higher.
How the values were obtained:
Experiment in all cases: NCI-60 cell line screen, 48 h
MCF7 = tested on: MCF7
TK-10 = tested on: TK-10
OVCAR-5 = tested on: OVCAR-5
HOP-92 = tested on: HOP-92
SN12C = tested on: SN12C
SNB-75 = tested on: SNB-75
SK-MEL-2 = tested on: SK-MEL-2
MDA-MB-435 = tested on: MDA-MB-435
Malme-3M = tested on: Malme-3M
K562 = tested on: K562
CCRF-CEM = tested on: CCRF-CEM
NCI-H522 = tested on: NCI-H522
SW-620 = tested on: SW-620
BT-549 = tested on: BT-549
COLO 205 = tested on: COLO 205
SK-MEL-5 = tested on: SK-MEL-5
ACHN = tested on: ACHN
EKVX = tested on: EKVX
M14 = tested on: M14
HL-60 = tested on: HL-60

Row | SMILES | GI50 (MCF7) | GI50 (TK-10) | GI50 (OVCAR-5) | GI50 (HOP-92) | GI50 (SN12C) | GI50 (SNB-75) | GI50 (SK-MEL-2) | GI50 (MDA-MB-435) | GI50 (Malme-3M) | GI50 (K562) | GI50 (CCRF-CEM) | GI50 (NCI-H522) | GI50 (SW-620) | GI50 (BT-549) | GI50 (COLO 205) | GI50 (SK-MEL-5) | GI50 (ACHN) | GI50 (EKVX) | GI50 (M14) | GI50 (HL-60)
1 | c1ccc(Nc2nn3c(CCCCCCCCc4nnc5sc(Nc6ccccc6)nn45)nnc3s2)cc1 | 26.4 µM (inactive) | 28.1 µM (inactive) | 36.9 µM (inactive) | 22.9 µM (inactive) | 49.1 µM (inactive) | 22.4 µM (inactive) | 29.4 µM (inactive) | 25.4 µM (inactive) | 37.1 µM (inactive) | 15.3 µM (inactive) | 20.4 µM (inactive) | 20.2 µM (inactive) | 29.2 µM (inactive) | 31.5 µM (inactive) | 19.5 µM (inactive) | 12.2 µM (inactive) | 35.8 µM (inactive) | 23.3 µM (inactive) | 16.5 µM (inactive) | 
2 | COC(=O)Nc1nc2cc(Oc3ccc4nc(NC(=O)OC)[nH]c4c3)ccc2[nH]1 |  | 4.78 µM (inactive) | 9.02 µM (inactive) | 6.56 µM (inactive) | 1.78 µM (inactive) | 0.701 µM (active) | 1.34 µM (inactive) | 0.115 µM (active) | 0.61 µM (active) | 0.942 µM (active) | 0.371 µM (active) | 1.34 µM (inactive) | 0.855 µM (active) | 7.01 µM (inactive) | 0.708 µM (active) | 0.687 µM (active) |  | 3.67 µM (inactive) | 0.993 µM (active) | 0.608 µM (active)
3 | COc1ccc(CNc2nc(NCc3ccc(OC)cc3)nc(NC3CCCCC3)n2)cc1 | 0.112 µM (active) | 0.975 µM (active) | 4.99 µM (inactive) | 24 µM (inactive) | 3.07 µM (inactive) |  | 2.81 µM (inactive) | 0.472 µM (active) | 0.225 µM (active) | 5.35 µM (inactive) | 2.21 µM (inactive) | 1.21 µM (inactive) | 3.56 µM (inactive) | 4.08 µM (inactive) | 1.94 µM (inactive) | 3.56 µM (inactive) | 5.11 µM (inactive) | 2.57 µM (inactive) | 2.15 µM (inactive) | 4.34 µM (inactive)
4 | C=CCC1CC(n2cc(C)c(=O)[nH]c2=O)OC1CO[Si](C)(C)C(C)(C)C (centres undefined) | 11.5 µM (inactive) | 15.8 µM (inactive) | 17.3 µM (inactive) | 15.8 µM (inactive) | 15 µM (inactive) | 11.8 µM (inactive) | 15.5 µM (inactive) | 13.4 µM (inactive) | 10.5 µM (inactive) | 0.163 µM (active) | 12.1 µM (inactive) | 10.4 µM (inactive) | 16.1 µM (inactive) | 16 µM (inactive) | 13.5 µM (inactive) | 15.4 µM (inactive) | 15.4 µM (inactive) | 7.52 µM (inactive) | 18.6 µM (inactive) | 
5 | Cc1nc2c(=O)[nH]c(=O)nc-2n(CCO)c1C | > 100 µM (inactive) | > 100 µM (inactive) | > 100 µM (inactive) | > 100 µM (inactive) | > 100 µM (inactive) | 82 µM (inactive) | > 100 µM (inactive) | > 100 µM (inactive) | > 100 µM (inactive) | > 100 µM (inactive) | > 100 µM (inactive) | > 100 µM (inactive) | > 100 µM (inactive) | > 100 µM (inactive) | > 100 µM (inactive) | > 100 µM (inactive) | > 100 µM (inactive) | > 100 µM (inactive) | > 100 µM (inactive) | 
6 | COC(=O)[C@@H](O)[C@]1(C(=O)OC)C2O[C@@H](OC)[C@@H]1CCCCCC[C@H]2O |  | > 100 µM (inactive) | > 100 µM (inactive) |  | > 100 µM (inactive) | > 100 µM (inactive) | 51.5 µM (inactive) | > 100 µM (inactive) | > 100 µM (inactive) | > 100 µM (inactive) | > 100 µM (inactive) | > 100 µM (inactive) | > 100 µM (inactive) | > 100 µM (inactive) | > 100 µM (inactive) | > 100 µM (inactive) | > 100 µM (inactive) | > 100 µM (inactive) | > 100 µM (inactive) | 
7 | CC(C)(C)[Si](C)(C)OCC1OC(n2ccc(=O)[nH]c2=O)C(O[Si](C)(C)C(C)(C)C)[C@]12O[C@@H]2CO (some centres undefined) | 12.1 µM (inactive) | 14.8 µM (inactive) | 17.5 µM (inactive) | 15 µM (inactive) | 15.7 µM (inactive) | 18.4 µM (inactive) | 14.7 µM (inactive) | 16 µM (inactive) |  | 23.3 µM (inactive) | > 10 µM (inactive) | 14.1 µM (inactive) | 20.2 µM (inactive) | 3.9 µM (inactive) | 17.5 µM (inactive) | 14 µM (inactive) | 11.9 µM (inactive) | 17 µM (inactive) | 14.4 µM (inactive) | 

Reference: ChEMBL document CHEMBL1201862, “PubChem BioAssay data set” (2004)
